Data set [1] in a line: Hydrolytic stability at 37 degrees Centigrade in 50 mM phosphate buffer (2 % v/v MeCN as solubilising vehicle) at pH 7.4. It counts as physicochemical.
In data set [2] the target is T1, Neutrophil elastase (Homo sapiens) (UniProt P08246).
T1 sequence (whole entry): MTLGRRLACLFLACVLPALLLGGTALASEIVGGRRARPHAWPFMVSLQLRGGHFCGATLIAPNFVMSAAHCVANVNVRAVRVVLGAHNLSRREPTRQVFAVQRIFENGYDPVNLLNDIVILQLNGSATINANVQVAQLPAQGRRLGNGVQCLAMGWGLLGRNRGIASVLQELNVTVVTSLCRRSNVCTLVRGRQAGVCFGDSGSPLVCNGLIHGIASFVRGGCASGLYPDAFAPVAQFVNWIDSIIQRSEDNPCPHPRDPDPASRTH
In words: Inhibitory activity against human leukocyte elastase (HLE) expressed as second order inhibition rate constant.

The nature of data set [3]: Hydrolytic stability at 37 degrees Celsius in 50 mM phosphate buffer (20 % v/v MeCN as solubilising vehicle) at pH 7.4. It counts as physicochemical.

A word on the half-life: it is the time in which the quantity being followed falls by half. A higher half-life goes with slow decline. `CO[C@H]1C(=O)N2c3c(cn(C(=O)C(C)(C)C)c3-c3ccccc3)CS(=O)(=O)[C@H]12`: the half-life in data set [1] is 33.3 days. This compound also yielded a k on in data set [2] of 2100 M⁻¹ s⁻¹.

As for `CO[C@H]1C(=O)N2c3c(c[nH]c3C(C)(C)C)CS(=O)(=O)[C@H]12`, the half-life in data set [1] was 21.2 days. The k on in data set [2] came out at 1300 M⁻¹ s⁻¹.

In data set [1], `CO[C@H]1C(=O)N2c3c(csc3-c3ccccc3)CS(=O)(=O)[C@H]12` gave a half-life of 1.42 days. The same compound showed a k on in data set [2] of 270 M⁻¹ s⁻¹.

On to `CO[C@H]1C(=O)N2c3c(cn(-c4ccc([N+](=O)[O-])cc4)c3-c3ccccc3)CS(=O)(=O)[C@H]12`, for which the half-life in data set [3] is more than 125 days. The compound also gave a k on in data set [2] of 11000 M⁻¹ s⁻¹.

Compound `CO[C@H]1C(=O)N2c3c(csc3C(C)(C)C)CS(=O)(=O)[C@H]12` showed a half-life in data set [1] of 9.17 days. Moreover, the k on in data set [2] was 80 M⁻¹ s⁻¹.

`CO[C@H]1C(=O)N2c3c(c[nH]c3-c3ccccc3)CS(=O)(=O)[C@H]12` showed a half-life in data set [1] of 23.8 days. In addition, the k on in data set [2] was 2500 M⁻¹ s⁻¹.

Values taken from ChEMBL document CHEMBL1128862, “Tricyclic cephems as inhibitors of human leukocyte elastase. thieno[3,4-c]cepham sulfones and pyrrolo[3,4-c]cepham sulfones” (Bioorg Med Chem Lett, 1995).
